Source: ChEMBL document CHEMBL1201862, “PubChem BioAssay data set” (2004)
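Assay format: 96-well plates, 48-hour exposure. Abbreviation: GI50, concentration required for 50% inhibition of growth.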 Active and inactive are the calls of the source. Cut-off read from the data, not from the text of the source: active = GI50 up to about 1.1 µM and inactive = higher.

Columns and labels:
Test in all cases: inhibition of tumour cell growth, NCI panel, 48 h
K562 = tested on: K562
NCI-H23 = tested on: NCI-H23
LOX IMVI = tested on: LOX IMVI
SK-OV-3 = tested on: SK-OV-3
COLO 205 = tested on: COLO 205
UACC-62 = tested on: UACC-62
SF-268 = tested on: SF-268
M14 = tested on: M14
MDA-MB-231 = tested on: MDA-MB-231
BT-549 = tested on: BT-549
HT-29 = tested on: HT-29
OVCAR-8 = tested on: OVCAR-8
A549 = tested on: A549
SK-MEL-28 = tested on: SK-MEL-28
SR = tested on: SR
PC-3 = tested on: PC-3
RXF 393 = tested on: RXF 393
NCI-H226 = tested on: NCI-H226
HL-60 = tested on: HL-60
MDA-N = tested on: MDA-N
NCI-H460 = tested on: NCI-H460
SF-539 = tested on: SF-539
SW-620 = tested on: SW-620
HCT-15 = tested on: HCT-15
MCF7 = tested on: MCF7
Malme-3M = tested on: Malme-3M
U-251 = tested on: U-251
RPMI-8226 = tested on: RPMI-8226
HOP-92 = tested on: HOP-92
SK-MEL-5 = tested on: SK-MEL-5
CCRF-CEM = tested on: CCRF-CEM
NCI-H522 = tested on: NCI-H522
UO-31 = tested on: UO-31
IGROV-1 = tested on: IGROV-1
786-0 = tested on: 786-0
SNB-19 = tested on: SNB-19
KM12 = tested on: KM12
ACHN = tested on: ACHN
HOP-62 = tested on: HOP-62
DU-145 = tested on: DU-145
SN12C = tested on: SN12C
MDA-MB-435 = tested on: MDA-MB-435
HCT-116 = tested on: HCT-116
OVCAR-3 = tested on: OVCAR-3
Hs-578T = tested on: Hs-578T
SNB-75 = tested on: SNB-75
OVCAR-4 = tested on: OVCAR-4
NCI/ADR-RES = tested on: NCI/ADR-RES
EKVX = tested on: EKVX
T47D = tested on: T47D
UACC-257 = tested on: UACC-257
CAKI-1 = tested on: CAKI-1
SF-295 = tested on: SF-295
HCC 2998 = tested on: HCC 2998
MOLT-4 = tested on: MOLT-4
OVCAR-5 = tested on: OVCAR-5
A498 = tested on: A498
SK-MEL-2 = tested on: SK-MEL-2
TK-10 = tested on: TK-10

## Cc1n[nH]c(=O)n1C1CC1
K562
  GI50: > 100 µM (inactive)
NCI-H23
  GI50: > 100 µM (inactive)
LOX IMVI
  GI50: > 100 µM (inactive)
SK-OV-3
  GI50: > 100 µM (inactive)
COLO 205
  GI50: > 100 µM (inactive)
UACC-62
  GI50: > 100 µM (inactive)
SF-268
  GI50: > 100 µM (inactive)
M14
  GI50: > 100 µM (inactive)
MDA-MB-231
  GI50: > 100 µM (inactive)
BT-549
  GI50: 0.0111 µM (active)
HT-29
  GI50: > 100 µM (inactive)
OVCAR-8
  GI50: > 100 µM (inactive)
A549
  GI50: > 100 µM (inactive)
SK-MEL-28
  GI50: > 100 µM (inactive)
SR
  GI50: > 100 µM (inactive)
PC-3
  GI50: > 100 µM (inactive)
RXF 393
  GI50: > 100 µM (inactive)
NCI-H226
  GI50: > 100 µM (inactive)
HL-60
  GI50: > 100 µM (inactive)
MDA-N
  GI50: > 100 µM (inactive)
NCI-H460
  GI50: > 100 µM (inactive)
SF-539
  GI50: > 100 µM (inactive)
SW-620
  GI50: > 100 µM (inactive)
HCT-15
  GI50: > 100 µM
MCF7
  GI50: > 100 µM (inactive)
Malme-3M
  GI50: 64.1 µM (inactive)
U-251
  GI50: > 100 µM (inactive)
RPMI-8226
  GI50: > 100 µM (inactive)
HOP-92
  GI50: > 100 µM (inactive)
SK-MEL-5
  GI50: > 100 µM (inactive)
CCRF-CEM
  GI50: > 100 µM (inactive)
NCI-H522
  GI50: > 100 µM (inactive)
UO-31
  GI50: > 100 µM (inactive)
IGROV-1
  GI50: > 100 µM (inactive)
786-0
  GI50: > 100 µM (inactive)
SNB-19
  GI50: > 100 µM (inactive)
KM12
  GI50: > 100 µM (inactive)
ACHN
  GI50: > 100 µM (inactive)
HOP-62
  GI50: > 100 µM (inactive)
DU-145
  GI50: > 100 µM (inactive)
SN12C
  GI50: > 100 µM (inactive)
MDA-MB-435
  GI50: > 100 µM (inactive)
HCT-116
  GI50: > 100 µM (inactive)
OVCAR-3
  GI50: > 100 µM (inactive)
Hs-578T
  GI50: > 100 µM (inactive)
SNB-75
  GI50: 42.7 µM (inactive)
OVCAR-4
  GI50: > 100 µM (inactive)
NCI/ADR-RES
  GI50: > 100 µM (inactive)
EKVX
  GI50: > 100 µM (inactive)
T47D
  GI50: > 100 µM (inactive)
UACC-257
  GI50: > 100 µM (inactive)
CAKI-1
  GI50: > 100 µM (inactive)
SF-295
  GI50: > 100 µM (inactive)
HCC 2998
  GI50: > 100 µM (inactive)
MOLT-4
  GI50: > 100 µM (inactive)
OVCAR-5
  GI50: > 100 µM (inactive)

## CCc1n[nH]c(=O)n1NC(=O)/C=C\C(=O)O
K562
  GI50: > 100 µM (inactive)
NCI-H23
  GI50: > 100 µM (inactive)
SK-OV-3
  GI50: > 100 µM (inactive)
COLO 205
  GI50: > 100 µM (inactive)
UACC-62
  GI50: > 100 µM (inactive)
SF-268
  GI50: > 100 µM (inactive)
M14
  GI50: > 100 µM (inactive)
MDA-MB-231
  GI50: > 100 µM (inactive)
BT-549
  GI50: > 100 µM (inactive)
HT-29
  GI50: > 100 µM (inactive)
OVCAR-8
  GI50: > 100 µM (inactive)
A549
  GI50: > 100 µM (inactive)
SR
  GI50: > 100 µM (inactive)
PC-3
  GI50: > 100 µM (inactive)
RXF 393
  GI50: > 100 µM (inactive)
NCI-H226
  GI50: > 100 µM (inactive)
HL-60
  GI50: > 100 µM (inactive)
MDA-N
  GI50: > 100 µM (inactive)
NCI-H460
  GI50: > 100 µM (inactive)
SF-539
  GI50: > 100 µM (inactive)
HCT-15
  GI50: > 100 µM
MCF7
  GI50: > 100 µM (inactive)
Malme-3M
  GI50: > 100 µM (inactive)
A498
  GI50: > 100 µM (inactive)
U-251
  GI50: > 100 µM (inactive)
SK-MEL-5
  GI50: > 100 µM (inactive)
CCRF-CEM
  GI50: > 100 µM (inactive)
NCI-H522
  GI50: > 100 µM (inactive)
SK-MEL-2
  GI50: > 100 µM (inactive)
IGROV-1
  GI50: > 100 µM (inactive)
786-0
  GI50: > 100 µM (inactive)
HOP-62
  GI50: > 100 µM (inactive)
DU-145
  GI50: > 100 µM (inactive)
SN12C
  GI50: > 100 µM (inactive)
MDA-MB-435
  GI50: > 100 µM (inactive)
HCT-116
  GI50: > 100 µM (inactive)
OVCAR-3
  GI50: > 100 µM (inactive)
Hs-578T
  GI50: > 100 µM (inactive)
SNB-75
  GI50: > 100 µM (inactive)
OVCAR-4
  GI50: > 100 µM (inactive)
TK-10
  GI50: > 100 µM (inactive)
NCI/ADR-RES
  GI50: > 100 µM (inactive)
EKVX
  GI50: > 100 µM (inactive)
T47D
  GI50: > 100 µM (inactive)
UACC-257
  GI50: > 100 µM (inactive)
CAKI-1
  GI50: > 100 µM (inactive)
SF-295
  GI50: > 100 µM (inactive)
HCC 2998
  GI50: > 100 µM (inactive)
MOLT-4
  GI50: > 100 µM (inactive)
OVCAR-5
  GI50: > 100 µM (inactive)

## O=C(CCCc1cccc2[nH]c3c(c12)CN(Cc1ccccc1)CC3)c1ccc(F)cc1
K562
  GI50: 7.01 µM (inactive)
NCI-H23
  GI50: 16.3 µM (inactive)
LOX IMVI
  GI50: 7.85 µM (inactive)
SK-OV-3
  GI50: > 47.1 µM (inactive)
COLO 205
  GI50: 14.4 µM (inactive)
UACC-62
  GI50: 49.1 µM (inactive)
SF-268
  GI50: > 100 µM (inactive)
M14
  GI50: 42 µM (inactive)
MDA-MB-231
  GI50: > 40.7 µM (inactive)
BT-549
  GI50: > 100 µM (inactive)
HT-29
  GI50: 4.39 µM (inactive)
OVCAR-8
  GI50: > 100 µM (inactive)
A549
  GI50: > 95.9 µM (inactive)
SK-MEL-28
  GI50: > 100 µM (inactive)
SR
  GI50: 13 µM (inactive)
PC-3
  GI50: > 43.6 µM (inactive)
RXF 393
  GI50: > 29.9 µM (inactive)
NCI-H226
  GI50: > 95.3 µM (inactive)
MDA-N
  GI50: 97.5 µM (inactive)
NCI-H460
  GI50: 31.5 µM (inactive)
SF-539
  GI50: > 47.8 µM (inactive)
SW-620
  GI50: 83.2 µM (inactive)
HCT-15
  GI50: 40.3 µM
MCF7
  GI50: > 100 µM (inactive)
Malme-3M
  GI50: 40.9 µM (inactive)
A498
  GI50: > 100 µM (inactive)
U-251
  GI50: 49.4 µM (inactive)
RPMI-8226
  GI50: 12.8 µM (inactive)
HOP-92
  GI50: > 100 µM (inactive)
SK-MEL-5
  GI50: 18.2 µM (inactive)
CCRF-CEM
  GI50: 30.4 µM (inactive)
NCI-H522
  GI50: 32.4 µM (inactive)
UO-31
  GI50: > 33.3 µM (inactive)
SK-MEL-2
  GI50: > 100 µM (inactive)
IGROV-1
  GI50: > 100 µM (inactive)
786-0
  GI50: > 52.5 µM (inactive)
SNB-19
  GI50: > 100 µM (inactive)
KM12
  GI50: 39.1 µM (inactive)
ACHN
  GI50: > 100 µM (inactive)
HOP-62
  GI50: > 37.4 µM (inactive)
DU-145
  GI50: > 100 µM (inactive)
SN12C
  GI50: > 100 µM (inactive)
MDA-MB-435
  GI50: 40.6 µM (inactive)
HCT-116
  GI50: 18.7 µM (inactive)
OVCAR-3
  GI50: > 100 µM (inactive)
Hs-578T
  GI50: 99.5 µM (inactive)
SNB-75
  GI50: > 62.7 µM (inactive)
OVCAR-4
  GI50: > 67 µM (inactive)
TK-10
  GI50: > 100 µM (inactive)
NCI/ADR-RES
  GI50: > 100 µM (inactive)
EKVX
  GI50: > 100 µM (inactive)
T47D
  GI50: 15.6 µM (inactive)
UACC-257
  GI50: 2.61 µM (inactive)
CAKI-1
  GI50: > 100 µM (inactive)
SF-295
  GI50: > 100 µM (inactive)
HCC 2998
  GI50: 11.9 µM (inactive)
MOLT-4
  GI50: 15.3 µM (inactive)
OVCAR-5
  GI50: > 48.1 µM (inactive)
